Read-outs that look alike come from different tables or passages of the source.
How the values were obtained:
[1] = cited from earlier work
[2] = tested on: Her2-driven breast tumor (BH) model; experiment: tumor cell proliferation by Ki67 immunohistochemistry; format: in vivo, mouse
Protocol: (§1) The Her2-driven breast tumor (BH) model used herein has the following genotype: MMTVrTTA, tetO HER2, INK4A(−/−), luciferase reporter.
To determine the mechanism of action of the combination therapy, capecitabine was administered alone and in combination with tivozanib, over two dosage cycles (FIG. 2A). Capecitabine was dosed at 300 mg/kg daily for two weeks, followed by a seven day break, and then an additional two weeks of capecitabine at 300 mg/kg daily. Tivozanib was dosed at 5 mg/kg daily for 5 weeks.

[3] = tested on: Her2-driven breast tumor (BH) model; experiment: tumor growth in Her2-driven breast tumor (BH) mouse model; format: in vivo; conditions: tivozanib 5 mg/kg daily, capecitabine 300 mg/kg daily 2 weeks on, 1 week off, oral, more than 4 weeks; FIG. 1
Protocol: as §1
When tumors reached approximately 200 mm^3, the mice were randomized into 4 groups of 10 mice each. One group received vehicle control. Each of the other 3 groups were treated with one of the two agents either administered alone or in combination. Both agents were administered orally.
Capecitabine was dosed at 300 mg/kg daily for two weeks followed by a one week break (2 weeks on, 1 week off) for more than 4 weeks.

[4] = cited from earlier work; remark: listed apart in the source
[5] = tested on: tumor blood vessels; experiment: inhibition of angiogenesis in tumors; format: in vivo, mouse; conditions: tivozanib 5 mg/kg daily 5 weeks, capecitabine 300 mg/kg daily two weeks, seven day break, FIG. 4
Protocol: An experiment was designed to evaluate the effect of the combination therapy on angiogenesis (FIG. 4). Tivozanib was dosed at 5 mg/kg daily for 5 weeks. Capecitabine was dosed at 300 mg/kg daily for two weeks, followed by a seven day break, and then an additional two weeks of capecitabine at 300 mg/kg daily.

[6] = oral administration of capecitabine; human xenograft tumors in mice; cited from earlier work
[7] = tested on: thymidine phosphorylase (TP); conditions: BH216 tumors; one dose at or about maximum tolerated dosage; tumors collected after 6 hours (also 24 hours for B20-4.1)
Protocol: Each of the VEGF inhibitors were administered at or about their respective maximum tolerated dosages.

[8] = tested on: thymidine phosphorylase (TP); experiment: TP induction in BH216-derived primary culture, qRT-PCR; format: cell-based, mouse; conditions: cultured BH216 tumor cells; 0.01-1000 nM, 3 hours
[9] = tested on: tumor; conditions: preclinical models; cited from earlier work
[10] = molecular target: VEGF receptor 3 (Homo sapiens, UniProt P35916); conditions: cited from earlier work
[11] = tested on: thymidine phosphorylase (TP); experiment: TP expression in murine breast tumors after tivozanib, qRT-PCR
Protocol: Murine breast tumors (BH216, BH225, BH229 and BH281) were introduced subcutaneously into nude mice. For each tumor type, when tumors reached approximately 250 mm^3, the mice were randomized into five groups, with three mice in each group. One group received vehicle (0.5% methyl-cellulose) and the remaining groups each received one dose of 5 mg/kg tivozanib. The mice were sacrificed and tumors collected at 0.5, 2, 6 and 16 hours post-dose. RNA was extracted from the tumors and TP expression was analyzed with qRT-PCR.

[12] = 272-patient Phase 2 clinical trial; cited from earlier work

Chain of VEGF receptor 3 (P35916 25-1363): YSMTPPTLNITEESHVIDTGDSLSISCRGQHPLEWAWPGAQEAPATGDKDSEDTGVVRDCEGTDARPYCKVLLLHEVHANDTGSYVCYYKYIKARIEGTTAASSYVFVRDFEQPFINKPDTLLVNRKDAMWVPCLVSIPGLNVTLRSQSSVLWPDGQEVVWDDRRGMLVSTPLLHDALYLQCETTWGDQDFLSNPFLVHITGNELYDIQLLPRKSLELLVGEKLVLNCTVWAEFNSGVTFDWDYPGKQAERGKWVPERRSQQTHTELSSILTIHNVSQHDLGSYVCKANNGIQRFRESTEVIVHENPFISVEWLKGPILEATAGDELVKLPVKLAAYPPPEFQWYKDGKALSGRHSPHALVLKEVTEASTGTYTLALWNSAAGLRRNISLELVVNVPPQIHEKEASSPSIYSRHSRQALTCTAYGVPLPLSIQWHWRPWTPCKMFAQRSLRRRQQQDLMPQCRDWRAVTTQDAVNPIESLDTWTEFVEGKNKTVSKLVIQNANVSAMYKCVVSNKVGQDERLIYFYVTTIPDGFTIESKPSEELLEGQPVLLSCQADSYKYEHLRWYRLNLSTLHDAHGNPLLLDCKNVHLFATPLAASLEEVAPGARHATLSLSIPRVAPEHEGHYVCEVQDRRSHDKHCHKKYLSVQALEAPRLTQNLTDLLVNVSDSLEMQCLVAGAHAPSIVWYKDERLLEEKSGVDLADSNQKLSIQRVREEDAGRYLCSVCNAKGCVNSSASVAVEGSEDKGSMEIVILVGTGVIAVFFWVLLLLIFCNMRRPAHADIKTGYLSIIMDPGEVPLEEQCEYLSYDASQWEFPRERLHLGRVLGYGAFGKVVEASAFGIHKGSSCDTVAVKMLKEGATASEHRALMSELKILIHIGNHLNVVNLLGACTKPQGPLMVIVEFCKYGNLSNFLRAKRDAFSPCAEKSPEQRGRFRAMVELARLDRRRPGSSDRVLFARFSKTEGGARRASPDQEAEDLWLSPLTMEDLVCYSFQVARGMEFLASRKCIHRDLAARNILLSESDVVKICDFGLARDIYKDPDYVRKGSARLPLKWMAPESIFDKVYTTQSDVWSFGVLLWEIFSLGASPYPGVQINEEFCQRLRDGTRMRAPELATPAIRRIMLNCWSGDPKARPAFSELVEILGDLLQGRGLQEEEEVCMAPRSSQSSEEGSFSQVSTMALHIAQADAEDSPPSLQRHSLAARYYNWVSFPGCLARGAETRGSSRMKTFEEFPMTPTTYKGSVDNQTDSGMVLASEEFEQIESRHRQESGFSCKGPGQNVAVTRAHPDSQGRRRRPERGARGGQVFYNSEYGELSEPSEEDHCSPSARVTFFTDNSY

## O=c1[nH]cc(F)c(=O)[nH]1 [fluorouracil, 5-fluoro-2,4-(1H,3H)-pyrimidinedione]
[1]; after capecitabine, day 14 vs day 1
  area under the curve (AUC) of fluorouracil, higher at day 14 than day 1: 35%
[1]; relative to parent compound
  half-life of primary metabolite of capecitabine: same approximate half-life of the parent compound

## CCCCCOC(=O)Nc1nc(=O)n([C@@H]2O[C@H](C)[C@@H](O)[C@H]2O)cc1F [capecitabine, 5′-deoxy-5-fluoro-N-[(pentyloxy)carbonyl]-cytidine]
[2]; capecitabine 300 mg/kg daily, first two weeks
  tumor cell proliferation: reduced tumor cell proliferation
[2]; during break periods
  tumor cell proliferation between capecitabine cycles: tumor cell proliferation rebound
[3]
  tumor growth: only moderate reduction in tumor growth
[1]; human body
  elimination half-life: approximately ¾
[4]; capecitabine, can be severe
  side effects: hand-and-foot syndrome (pain, swelling or redness of your hands or feet), diarrhea, nausea, vomiting, dehydration, sores in the mouth and throat, stomach area pain, tiredness or weakness, fever, and joint and muscle pain
[5]
  angiogenesis: no change in the angiogenesis profile
[6]
  5-FU AUC in tumors versus plasma: 100-200 fold

## COc1cc2nccc(Oc3ccc(NC(=O)Nc4cc(C)on4)c(Cl)c3)c2cc1OC [tivozanib, N-{2-chloro-4-[(6,7-dimethoxy-4-quinolyl)oxy]-phenyl}-N′-(5-methyl-3-isoxazolyl)urea]
[7]
  TP induction: significant TP induction
[8]
  TP induction: TP induction was observed
[3]
  tumor growth: only moderate reduction in tumor growth
[1]; chronic dosing
  time for serum levels to reach steady state: 2-3 weeks
[1]; human body
  half-life: 91.2 to 113 h
[9]
  antitumor activity: exhibits antitumor activity
[4]; Phase 1, Phase 2 and Phase 3 clinical trials
  most common side effects: hypertension and dysphonia
[10]
  inhibitory activity: picomolar
[11]; BH216 tumors, 6 hours after tivozanib 5 mg/kg
  up-regulation of TP: approximately 8 fold
[11]; BH216 tumors, 16 hours post-dose, tivozanib 5 mg/kg
  TP expression: significant elevation in TP expression
[11]; BH229 tumor, tivozanib 5 mg/kg
  TP up-regulation: no TP up-regulation
[11]; BH281 tumor, tivozanib 5 mg/kg
  TP up-regulation: no TP up-regulation
[12]
  clinical trial results: positive results
[5]
  angiogenesis: only a reduction in vessel size but not microvessel density
